Experiments:
[1] = target: T1, c-Met (cytoplasmic domain) (Homo sapiens, UniProt P08581); assay: c-Met Kinase Assay (ELISA/TRF, PLC-γ substrate); format: biochemical; conditions: 3 μM ATP (Km level); read-out: c-Met Kinase Inhibition (IC50)
T1 construct: Reactions were initiated with 30 ng/mL c-Met (cytoplasmic domain, Invitrogen Corporation #PV3143); purchased Invitrogen Corporation PV3143
Summary of the method: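 Readout is TRF of europium anti-phosphotyrosine (PT66) bound to GST–PLC-γ substrate coated at 10 μg/mL, after a 15 min, 37 °C reaction started with 30 ng/mL c-Met cytoplasmic domain. Percent inhibition plotted against log compound concentration and fitted (variable slope) for IC50.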

[2] = target: baculovirus-expressed ALK (Homo sapiens, UniProt Q9UM73); assay: ALK Kinase Assay (ELISA/TRF, PLC-γ substrate); format: biochemical; conditions: read-out: ALK Kinase Inhibition (IC50); note: 1 µM ATP (Km level)
Summary of the method: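 Read-out: TRF of europium-labeled anti-phosphotyrosine antibody bound to phosphorylated GST–PLC-γ coated at 10 μg/mL. Kinase step used 30 ng/ml ALK, 37° C, 15 minutes. IC50 values fitted by nonlinear sigmoidal dose-response (variable slope).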

Sequence of baculovirus-expressed ALK (Q9UM73 19-1620): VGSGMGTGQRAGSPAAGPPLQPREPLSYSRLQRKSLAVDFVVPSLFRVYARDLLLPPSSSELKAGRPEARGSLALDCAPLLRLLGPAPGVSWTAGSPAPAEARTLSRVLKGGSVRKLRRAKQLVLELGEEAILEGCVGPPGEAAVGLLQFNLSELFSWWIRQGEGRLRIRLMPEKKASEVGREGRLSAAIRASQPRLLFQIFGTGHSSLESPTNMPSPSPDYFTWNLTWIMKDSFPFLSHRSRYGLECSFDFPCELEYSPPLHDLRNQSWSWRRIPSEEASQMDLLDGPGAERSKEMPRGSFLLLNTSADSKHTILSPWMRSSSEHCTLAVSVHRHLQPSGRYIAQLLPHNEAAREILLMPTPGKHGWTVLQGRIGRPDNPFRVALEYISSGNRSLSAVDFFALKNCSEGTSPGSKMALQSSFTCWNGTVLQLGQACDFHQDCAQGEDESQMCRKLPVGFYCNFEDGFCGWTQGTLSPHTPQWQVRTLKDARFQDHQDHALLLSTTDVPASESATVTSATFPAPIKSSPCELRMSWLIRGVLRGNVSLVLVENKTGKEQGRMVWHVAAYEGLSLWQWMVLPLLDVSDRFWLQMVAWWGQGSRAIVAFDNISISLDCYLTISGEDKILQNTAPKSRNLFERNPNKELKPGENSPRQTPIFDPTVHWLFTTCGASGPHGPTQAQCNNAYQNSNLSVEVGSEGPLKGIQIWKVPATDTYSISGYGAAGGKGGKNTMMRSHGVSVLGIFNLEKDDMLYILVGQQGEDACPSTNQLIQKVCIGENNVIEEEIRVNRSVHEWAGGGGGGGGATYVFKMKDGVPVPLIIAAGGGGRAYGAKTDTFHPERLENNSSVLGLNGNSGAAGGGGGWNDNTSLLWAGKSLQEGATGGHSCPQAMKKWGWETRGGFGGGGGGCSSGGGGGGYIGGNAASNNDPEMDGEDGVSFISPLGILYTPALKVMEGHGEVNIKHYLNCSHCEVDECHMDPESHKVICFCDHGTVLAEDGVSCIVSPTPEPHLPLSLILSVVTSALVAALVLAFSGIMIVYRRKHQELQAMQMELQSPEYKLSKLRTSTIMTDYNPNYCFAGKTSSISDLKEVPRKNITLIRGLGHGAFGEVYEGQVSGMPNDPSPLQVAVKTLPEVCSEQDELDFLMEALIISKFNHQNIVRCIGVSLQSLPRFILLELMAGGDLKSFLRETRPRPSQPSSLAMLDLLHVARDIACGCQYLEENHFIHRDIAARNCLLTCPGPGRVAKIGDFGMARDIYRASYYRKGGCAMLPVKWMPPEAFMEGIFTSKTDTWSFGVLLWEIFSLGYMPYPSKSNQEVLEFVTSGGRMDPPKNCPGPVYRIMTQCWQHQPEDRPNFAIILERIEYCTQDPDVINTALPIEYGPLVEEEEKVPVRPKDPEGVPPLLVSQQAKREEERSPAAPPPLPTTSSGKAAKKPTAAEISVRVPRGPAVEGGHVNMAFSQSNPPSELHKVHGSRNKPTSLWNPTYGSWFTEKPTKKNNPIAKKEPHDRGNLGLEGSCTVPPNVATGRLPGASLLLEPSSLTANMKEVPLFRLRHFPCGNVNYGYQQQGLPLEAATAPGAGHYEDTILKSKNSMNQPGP
T1 sequence (P08581 956-1390 limits assumed): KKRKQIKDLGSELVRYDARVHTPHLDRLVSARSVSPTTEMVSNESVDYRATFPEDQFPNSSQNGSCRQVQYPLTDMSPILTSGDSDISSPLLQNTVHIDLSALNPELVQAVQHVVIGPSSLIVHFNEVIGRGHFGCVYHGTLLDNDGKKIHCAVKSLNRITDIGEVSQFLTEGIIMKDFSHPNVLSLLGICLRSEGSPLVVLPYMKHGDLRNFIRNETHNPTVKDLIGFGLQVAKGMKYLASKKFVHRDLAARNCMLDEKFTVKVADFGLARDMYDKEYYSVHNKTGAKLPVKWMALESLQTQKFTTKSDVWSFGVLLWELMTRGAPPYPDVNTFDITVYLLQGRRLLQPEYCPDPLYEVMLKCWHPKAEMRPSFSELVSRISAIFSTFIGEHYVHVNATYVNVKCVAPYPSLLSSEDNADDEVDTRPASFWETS

| IC50 [1] | melting point | IC50 [2] | SMILES |
| --- | --- | --- | --- |
| > 100 µM | 244 to 245 °C | > 100 µM | O=C1CNc2ncc(I)cc2N1Cc1cc(F)ccc1C(F)(F)F [Example 133, 1-(5-Fluoro-2-trifluoromethylbenzyl)-7-iodo-3,4-dihydro-1H-pyrido[2,3-b]pyrazin-2-one] |
| 10 to 100 µM | 255 to 260 °C | 10 to 100 µM | O=C(O)c1cncc(-c2cnc3c(c2)N(Cc2cc(F)ccc2F)CCN3)c1 [Example 74, 5-[1-(2,5-Difluorobenzyl)-1,2,3,4-tetrahydropyrido[2,3-b]pyrazin-7-yl]-nicotinic acid] |
| > 100 µM | 201 to 203 °C | 10 to 100 µM | CCOC(=O)c1ccc(-c2cnc3c(c2)N(Cc2cc(F)ccc2F)C(=O)CN3)cc1 [Example 55, 4-[1-(2,5-Difluorobenzyl)-2-oxo-1,2,3,4-tetrahydropyrido[2,3-b]pyrazin-7-yl]benzoic acid ethyl ester] |
| 1 to 10 µM | > 200 °C | 0.1 to 1 µM | O=C(NCCN1CCCC1)c1ccc(-c2cnc3c(c2)N(Cc2c(Cl)cccc2Cl)C(=O)CN3)cc1 [Example 142, 4-[1-(2,6-Dichlorobenzyl)-2-oxo-1,2,3,4-tetrahydropyrido[2,3-b]pyrazin-7-yl]-N-(2-pyrrolidin-1-yl-ethyl)benzamide] |
| 1 to 10 µM | 235 to 236 °C (dec.) | 0.1 to 1 µM | CN1CCN(c2ccc(-c3cnc4c(c3)N(Cc3c(F)ccc(F)c3Cl)CC(=O)N4)cn2)CC1 [Example 437, 1-(2-Chloro-3,6-difluorobenzyl)-7-[6-(4-methylpiperazin-1-yl)pyridin-3-yl]-1,4-dihydro-2H-pyrido[2,3-b]pyrazin-3-one] |
| 10 to 100 µM | 180 to 181 °C | 1 to 10 µM | CN1CCN(C(=O)c2ccc(-c3cnc4c(c3)N(Cc3ccccc3)CCN4)cc2)CC1 [Example 37, [4-(1-Benzyl-1,2,3,4-tetrahydropyrido[2,3-b]pyrazin-7-yl)phenyl]-(4-methylpiperazin-1-yl)methanone] |
| > 100 µM | > 200 °C | 10 to 100 µM | O=C(O)c1ccc(-c2cnc3c(c2)N(Cc2ccccc2)C(=O)CN3)cc1 [Example 10, 4-(1-Benzyl-2-oxo-1,2,3,4-tetrahydropyrido[2,3-b]pyrazin-7-yl)benzoic acid] |
| 10 to 100 µM | 171 to 172 °C | 1 to 10 µM | CC1(C)Nc2ncc(-c3ccc(C(=O)N4CCC[C@H]4CN4CCCC4)cc3)cc2N(Cc2cc(F)ccc2F)C1=O [Example 94, 1-(2,5-Difluorobenzyl)-3,3-dimethyl-7-[4-((S)-2-[(pyrrolidin-1-yl)methyl]pyrrolidine-1-carbonyl)phenyl]-3,4-dihydro-1H-pyrido[2,3-b]pyrazin-2-one] |
| > 100 µM | 180 to 182 °C | 1 to 10 µM | CCOC(=O)c1ccc(-c2cnc3c(c2)N(Cc2c(F)ccc(F)c2Cl)C(=O)CN3)cc1 [Example 5, 4-[1-(2-Chloro-3,6-difluorobenzyl)-2-oxo-1,2,3,4-tetrahydropyrido[2,3-b]pyrazin-7-yl]benzoic acid ethyl ester] |
| 10 to 100 µM | 219 to 220 °C | > 100 µM | O=C(c1ccccc1)N1CCNc2ncc(-c3cccnc3)cc21 [Example 43, Phenyl-(7-pyridin-3-yl-3,4-dihydro-2H-pyrido[2,3-b]pyrazin-1-yl)methanone] |
| 10 to 100 µM | 187 to 188 °C | 1 to 10 µM | O=S(=O)(c1cc(F)ccc1F)N1CCNc2ncc(I)cc21 [Example 121, 1-(2,5-Difluorobenzenesulfonyl)-7-iodo-1,2,3,4-tetrahydropyrido[2,3-b]pyrazine] |
| 10 to 100 µM | 194 °C | 0.1 to 1 µM | Clc1cc(-c2cnc3c(c2)N(Cc2c(Cl)cccc2Cl)CCN3)ccn1 [Example 167, 7-(2-Chloropyridin-4-yl)-1-(2,6-dichlorobenzyl)-1,2,3,4-tetrahydropyrido[2,3-b]pyrazine] |
| 10 to 100 µM | 124 to 126 °C | 1 to 10 µM | Clc1cccc(OC2CCNc3ncc(-c4ccc(N5CCOCC5)cc4)cc32)c1 (stereo not drawn) [Example 280, 4-(3-Chlorophenoxy)-6-(4-morpholin-4-yl-phenyl)-1,2,3,4-tetrahydro-[1,8]naphthyridine] |
| 10 to 100 µM | > 200 °C | 0.1 to 1 µM | O=S1(=O)CCN(CC#Cc2cnc3c(c2)N(Cc2cc(Cl)ccc2Cl)CCN3)CC1 [Example 174, 1-(2,5-Dichlorobenzyl)-7-[3-(1,1-dioxo-1λ^6-thiomorpholin-4-yl)prop-1-ynyl]-1,2,3,4-tetrahydropyrido[2,3-b]pyrazine] |
| 10 to 100 µM | 117 to 118 °C | 1 to 10 µM | O=C1CNc2ncc(-c3ccc(C(=O)N4CCC[C@H]4CN4CCCC4)cc3)cc2N1Cc1cc(F)c(F)cc1F [Example 83, 7-[4-((S)-2-[(pyrrolidin-1-yl)methyl]pyrrolidine-1-carbonyl)phenyl]-1-(2,4,5-trifluorobenzyl)-3,4-dihydro-1H-pyrido[2,3-b]pyrazin-2-one] |
| 10 to 100 µM | > 300 °C | 1 to 10 µM | CN1CCN(c2ccc(-c3cnc4c(c3)N(C(=O)Cc3cc(F)ccc3F)CCN4)cn2)CC1 [Example 113] |

The next lines start with the molecule.

| SMILES | IC50 [1] | melting point | IC50 [2] |
| --- | --- | --- | --- |
| O=C1CNc2ncc(I)cc2N1Cc1ccccc1OC(F)(F)F [Example 294, 7-Iodo-1-[2-(trifluoromethoxy)benzyl]-3,4-dihydro-1H-pyrido[2,3-b]pyrazin-2-one] | 10 to 100 µM | 235 °C | 10 to 100 µM |
| Fc1ccc(F)c(/C=C2/CCNc3nc(Br)ccc32)c1 [Example 283, 7-Bromo-4-[1-(2,5-difluorophenyl)methylidene]-1,2,3,4-tetrahydro-[1,8]naphthyridine] | > 100 µM | 178 to 179 °C | > 100 µM |
| CC(c1c(F)ccc(F)c1Cl)N1CCNc2ncc(I)cc21 (stereo not drawn) [Example 176, 1-[1-(2-Chloro-3,6-difluorophenyl)ethyl]-7-iodo-1,2,3,4-tetrahydropyrido[2,3-b]pyrazine] | 10 to 100 µM | 166 °C | 1 to 10 µM |
| O=C1CNc2ncc(I)cc2N1 [Example 2, 7-Iodo-3,4-dihydro-1H-pyrido[2,3-b]pyrazin-2-one] | > 100 µM | 81 °C | > 100 µM |
| Ic1cnc2c(c1)N(Cc1ccccc1)CCN2 [Example 33, 1-Benzyl-7-iodo-1,2,3,4-tetrahydropyrido[2,3-b]pyrazine] | > 100 µM | 147 to 148 °C | 10 to 100 µM |
| CN1CCN(c2ccc(-c3cnc4c(c3)NCCN4)cn2)CC1 [Example 109, 7-[6-(4-Methylpiperazin-1-yl)pyridin-3-yl]-1,2,3,4-tetrahydropyrido[2,3-b]pyrazine] | > 100 µM | 225 °C (dec.) | 10 to 100 µM |
| NCC#Cc1cnc2c(c1)N(Cc1cc(Cl)ccc1Cl)CCN2 [Example 169, 3-[1-(2,5-Dichlorobenzyl)-1,2,3,4-tetrahydropyrido[2,3-b]pyrazin-7-yl]prop-2-ynylamine] | 10 to 100 µM | 183 °C | 0.1 to 1 µM |
| OC1CCNc2nc(Br)ccc21 (stereo not drawn) [Example 267, 7-bromo-1,2,3,4-tetrahydro-[1,8]naphthyridin-4-ol] | > 100 µM | 130 to 131 °C | 10 to 100 µM |
| O=C1CCNc2nc(Br)ccc21 [Example 266, 7-bromo-2,3-dihydro-1H-[1,8]naphthyridin-4-one] | > 100 µM | 196 to 197 °C | > 100 µM |
| O=C(c1ccccc1)N1CCNc2ncc(I)cc21 [Example 42, (7-Iodo-3,4-dihydro-2H-pyrido[2,3-b]pyrazin-1-yl)phenylmethanone] | > 100 µM | 164 to 166 °C | > 100 µM |
| O=S(=O)(c1ccccc1Cl)N1CCNc2ncc(I)cc21 [Example 124, 1-(2-Chlorobenzenesulfonyl)-7-iodo-1,2,3,4-tetrahydropyrido[2,3-b]pyrazine] | 10 to 100 µM | 146 to 147 °C | 1 to 10 µM |
| O=C(O)CCNc1cccc(Br)n1 [Example 265, 3-(6-bromo-pyridin-2-ylamino)propionic acid] | > 100 µM | 108 to 109 °C | > 100 µM |
| CN(C)CC(=O)NCC#Cc1cnc2c(c1)N(Cc1c(Cl)cccc1Cl)CCN2 [Example 172, N-{3-[1-(2,6-Dichlorobenzyl)-1,2,3,4-tetrahydropyrido[2,3-b]pyrazin-7-yl]prop-2-ynyl}-2-dimethylamino-acetamide] | 10 to 100 µM | > 200 °C | 0.1 to 1 µM |
| OC1CNc2ncc(I)cc2N1Cc1cc(F)ccc1C(F)(F)F (stereo not drawn) [Example 134, 1-(5-Fluoro-2-trifluoromethylbenzyl)-7-iodo-1,2,3,4-tetrahydropyrido[2,3-b]pyrazin-2-ol] | 10 to 100 µM | 142 °C (dec.) | 10 to 100 µM |
| Ic1cnc2c(c1)NCCN2 [Example 40, 7-Iodo-1,2,3,4-tetrahydropyrido[2,3-b]pyrazine] | > 100 µM | 126 to 128 °C | > 100 µM |
| O=C1CNc2ncc(I)cc2N1Cc1cccnc1Cl [Example 299, 1-(2-Chloropyridin-3-ylmethyl)-7-iodo-3,4-dihydro-1H-pyrido[2,3-b]pyrazin-2-one] | > 100 µM | 249 °C | 1 to 10 µM |
